The nature of series [1]: RP, Waters ACQUITY UPLC HSS C18, 100 × 2.1 mm, 1.7 µm, 40 °C, 0.35 mL/min, estimated dead time 0.63 min; A: water + 0.1% formic acid; B: methanol + 0.1% formic acid; gradient (min/%B) 0/0.5 4/70 4.5/98 5.4/98. The settings on record: stereoisomer not certain.
The nature of series [2]: Waters ACQUITY UPLC BEH C18, 100 × 2.1 mm, 1.7 µm, 40 °C, 0.28 mL/min, estimated dead time 0.63 min; A: water + 6.5 mM ammonium hydroxide; B: methanol + 6.5 mM ammonium hydroxide; gradient (min/%B) 0/0.5 4/70 4.5/98 5.4/98. To be noted: stereoisomer not certain.

On to `O=C(O)C(O)c1ccc(O)cc1` (stereo unspecified), for which the values for the LC retention time in series [1] and in series [2] were 3.64 min and 0.823 min, respectively.
Consider `c1ncc2[nH]cnc2n1`, for which the LC retention time was 1.69 min in series [1] and 1.85 min in series [2].
On the same counts, the results for `OCc1ccccc1OC1OC(CO)C(O)C(O)C1O` (stereo unspecified) are 2.82 min and 2.89 min.
With `COc1ccc(OC)c(C(O)C(C)N)c1` (stereo unspecified), the LC retention time in series [1] is 3.14 min; in series [2], 3.99 min.
Take `CCC(O)(CC)C(=O)O`: the LC retention time was 3.56 min in series [1] and 1.31 min in series [2].
Consider `O=C(O)Cc1cnc[nH]1`, for which the LC retention time was 0.825 min in series [1] and 0.817 min in series [2].
On the same counts, the results for `O=C(O)c1cc(=O)c2cccc(O)c2[nH]1` are 3.04 min and 1.67 min.
For `CC1(C)SC2C(NC(=O)C(N)c3ccccc3)C(=O)N2C1C(=O)O` (stereo unspecified), the LC retention time in series [1] is 3.45 min; in series [2], 3.72 min.
On to `Nc1ccnc(=O)[nH]1`, for which the LC retention time in series [1] is 0.783 min; in series [2], 1 min.
On the same counts, the results for `CN(C)CC(=O)O` are 0.77 min and 0.821 min.
With `O=C(O)CCCCc1ccccc1`, the LC retention time in series [1] is 5 min; in series [2], 4.37 min.
On the same counts, the results for `NCCCCC(=O)O` are 0.909 min and 0.812 min.
Turning to `O=C1CC(C(=O)O)NC(=O)N1` (stereo unspecified), the LC retention time in series [1] is 0.995 min; in series [2], 0.767 min.
With `O=C(O)c1ccc(=O)[nH]c1`, the values for the LC retention time in series [1] and in series [2] were 1.96 min and 0.819 min, respectively.
On the same counts, the results for `O=C(NC(O)C(=O)O)c1ccccc1` (stereo unspecified) are 2.8 min and 2.02 min.
On the same counts, the results for `Nc1ccccc1C(=O)CC(N)C(=O)O` (stereo unspecified) are 2.2 min and 2.21 min.
For `Nc1ccc(C(=O)O)cc1`, the LC retention time in series [1] is 2.41 min; in series [2] it was 0.852 min.
As for `NC(=O)c1cccnc1`, the LC retention time in series [1] is 1.4 min; in series [2], 2.14 min.
Taken in the same sequence, the figures for `CCCOC(=O)c1ccc(O)cc1` were 5.25 min and 5.27 min.
`O=C(O)CCCCCCC(=O)NCC(=O)O`: the figures for the LC retention time in series [1] and in series [2] were 3.35 min and 0.865 min, respectively.
On the same counts, the results for `O=C(O)Cc1c[nH]c2ccc(O)cc12` are 2.92 min and 1.72 min.
Consider `CNCCc1ccc(O)cc1`, for which the figures for the LC retention time in series [1] and in series [2] were 1.79 min and 2.43 min, respectively.
On to `CC12CCC(=O)C=C1CCC1C2C(=O)CC2(C)C1CCC2(O)C(=O)CO` (stereo unspecified), for which the LC retention time in series [1] is 4.87 min; in series [2], 5.05 min.
In the case of `O=C(O)c1ccccn1`, the LC retention time in series [1] was 1.14 min; in series [2] it was 1.2 min.
On the same counts, the results for `Cc1ccc(O)c(O)c1` are 3.49 min and 3.87 min.
Regarding `CN(CC(=O)O)C(=N)N`, the LC retention time in series [1] was 0.82 min; in series [2], 0.86 min.
As for `CC(C)=CCNc1ncnc2nc[nH]c12`, the LC retention time was 3.94 min in series [1] and 4.91 min in series [2].
Turning to `NC(Cc1c[nH]c2ccc(O)cc12)C(=O)O` (stereo unspecified), the LC retention time is 1.97 min in series [1] and 1.9 min in series [2].
Take `O=C(O)Cc1ccccc1`: the figures for the LC retention time in series [1] and in series [2] were 2.87 min and 1.75 min, respectively.
On the same counts, the results for `O=C(O)c1cccc(O)c1` are 3.47 min and 0.886 min.
On the same counts, the results for `Cc1cnc(=O)[nH]c1N` are 0.911 min and 1.62 min.
Taken in the same sequence, the figures for `O=C(O)CNC(=O)C=Cc1ccccc1` were 4.18 min and 3.49 min.
Regarding `O=C(O)Cc1cc(O)ccc1O`, the LC retention time was 2.23 min in series [1] and 1.49 min in series [2].
As to `Cn1c(=O)[nH]c2ncn(C)c2c1=O`, the LC retention time was 2.8 min in series [1] and 2.68 min in series [2].
On to `Nc1ncnc2c1ncn2C1CC(O)C(COP(=O)(O)O)O1` (stereo unspecified), for which the LC retention time is 1.56 min in series [1] and 1.31 min in series [2].
Taken in the same sequence, the figures for `CCOC(=O)C1=CC(OC(CC)CC)C(NC(C)=O)C(N)C1` (stereo unspecified) were 4.43 min and 5.35 min.
`NC(=O)NC1NC(=O)NC1=O` (stereo unspecified): the LC retention time in series [1] was 0.855 min; in series [2], 0.799 min.
In the case of `O=C(NO)c1ccccc1O`, the figures for the LC retention time in series [1] and in series [2] were 3.04 min and 2.15 min, respectively.
As for `Cc1cn(C2CC(O)C(CO)O2)c(=O)[nH]c1=O` (stereo unspecified), the LC retention time was 2.29 min in series [1] and 2.34 min in series [2].
On the same counts, the results for `CC=C(C)C(=O)NCC(=O)O` are 2.9 min and 2.16 min.
On the same counts, the results for `Nc1nc2ncc(CNc3ccc(C(=O)NC(CCC(=O)O)C(=O)O)cc3)nc2c(=O)[nH]1` (stereo unspecified) are 3.01 min and 0.847 min.
Turning to `Cc1ccccc1C(=O)NCC(=O)O`, the LC retention time in series [1] is 3.56 min; in series [2] it was 2.74 min.
On the same counts, the results for `Nc1nc2c(ncn2C2OC(CO)C(O)C2O)c(=O)[nH]1` (stereo unspecified) are 1.92 min and 1.98 min.
On the same counts, the results for `NC(=O)Cc1c[nH]c2ccccc12` are 3.52 min and 3.63 min.
Turning to `O=C(O)CCc1c[nH]c2ccccc12`, the results for the LC retention time in series [1] and in series [2] were 4.63 min and 3.13 min, respectively.
Take `COc1cc(C(O)CN)ccc1O` (stereo unspecified): the LC retention time in series [1] is 1.16 min; in series [2] it was 1.88 min.
Consider `OC1C2COC(O2)C(O)C1O` (stereo unspecified), for which the figures for the LC retention time in series [1] and in series [2] were 0.85 min and 0.853 min, respectively.
On the same counts, the results for `Cc1ncc(CO)c(CO)c1O` are 1.54 min and 1.94 min.
`O=c1cc[nH]c(=O)[nH]1`: the LC retention time in series [1] is 1.18 min; in series [2], 1.19 min.
On the same counts, the results for `OCC1OC(OC2(CO)OC(CO)C(O)C2O)C(O)C(O)C1O` (stereo unspecified) are 0.86 min and 0.962 min.
On the same counts, the results for `Cc1cn(C2CC(O)C(COP(=O)(O)O)O2)c(=O)[nH]c1=O` (stereo unspecified) are 1.76 min and 0.908 min.
Taken in the same sequence, the figures for `CCN(CC)CCNC(=O)c1ccc(N)cc1` were 2.01 min and 3.81 min.
With `O=C(O)CCCc1c[nH]c2ccccc12`, the LC retention time in series [1] is 4.92 min; in series [2], 3.66 min.
For `COc1cc(CCN)ccc1O`, the figures for the LC retention time in series [1] and in series [2] were 1.99 min and 2.57 min, respectively.
As for `OCC1OC(OC2C(CO)OC(OC3C(CO)OC(O)C(O)C3O)C(O)C2O)C(O)C(O)C1O` (stereo unspecified), the LC retention time is 0.847 min in series [1] and 0.851 min in series [2].
`Cn1c(=O)[nH]c2[nH]c(=O)n(C)c2c1=O`: the LC retention time in series [1] is 2.78 min; in series [2], 1.81 min.
Taken in the same sequence, the figures for `COc1ccc2[nH]cc(CCNC(C)=O)c2c1` were 4.05 min and 4.19 min.
Taken in the same sequence, the figures for `NC(=O)CCC(NC(=O)Cc1ccccc1)C(=O)O` (stereo unspecified) were 3.27 min and 2.69 min.
On the same counts, the results for `CCOC(=O)Cc1c[nH]c2ccccc12` are 5.21 min and 5.38 min.
For the molecule `NC(CC(=O)O)C(=O)NC(Cc1ccccc1)C(=O)O` (stereo unspecified), the figures for the LC retention time in series [1] and in series [2] were 2.95 min and 1.73 min, respectively.
On the same counts, the results for `Nc1ncnc2c1ncn2C1OC2COP(=O)(O)OC2C1O` (stereo unspecified) are 1.95 min and 2.32 min.
Turning to `CCC(C)C(=O)NCC(=O)O` (stereo unspecified), the LC retention time in series [1] is 2.97 min; in series [2] it was 2.17 min.
In the case of `CC(=O)Nc1ccc(O)cc1`, the results for the LC retention time in series [1] and in series [2] were 2.51 min and 2.58 min, respectively.
On the same counts, the results for `Cc1c[nH]c(=O)[nH]c1=O` are 1.88 min and 1.94 min.
On the same counts, the results for `CN(C)CCc1ccc(O)cc1` are 1.82 min and 3.89 min.
Taken in the same sequence, the figures for `NC(N)=NCC(=O)O` were 0.759 min and 0.801 min.
For `NC1(C(=O)O)CC1`, the LC retention time in series [1] was 0.779 min; in series [2], 0.778 min.
On the same counts, the results for `Nc1ncnc2nc[nH]c12` are 1.05 min and 1.99 min.
Taken in the same sequence, the figures for `Cn1c(=O)c2[nH]c(=O)[nH]c2n(C)c1=O` were 2.47 min and 1.92 min.
On the same counts, the results for `CNC(=O)c1cccnc1` are 1.82 min and 2.54 min.
As to `CC(=O)NC(C)C(=O)O` (stereo unspecified), the LC retention time in series [1] was 1.77 min; in series [2], 0.918 min.
Taken in the same sequence, the figures for `OCCc1c[nH]c2ccccc12` were 4.22 min and 4.36 min.
On the same counts, the results for `C[N+](C)(C)CCCC(=O)[O-]` are 0.814 min and 0.803 min.
Take `CC(=O)NCC(=O)O`: the results for the LC retention time in series [1] and in series [2] were 1.13 min and 0.78 min, respectively.
As for `Cn1c(=O)c2c([nH]c(=O)n2C)n(C)c1=O`, the LC retention time in series [1] is 3 min; in series [2], 2.29 min.
Taken in the same sequence, the figures for `Oc1cccc(O)c1O` were 1.94 min and 1.93 min.
On to `O=c1ccn(C2OC(CO)C(O)C2O)c(=O)[nH]1` (stereo unspecified), for which the LC retention time is 1.66 min in series [1] and 1.67 min in series [2].
Taken in the same sequence, the figures for `Nc1cc(O)cc(C(=O)O)c1` were 1.32 min and 0.812 min.
